Data published in ChEMBL document CHEMBL1759970, “Design, synthesis and SAR of novel ethylenediamine and phenylenediamine derivatives as factor Xa inhibitors” (Bioorg Med Chem Lett, 2011).
Converted amounts (≈) assume the structure as drawn.

Key:
physchem [1] = settings: buffer, pH 6.8
Description: Solubility of compound at pH 6.8

physchem [2] = settings: buffer, pH 1.2
Description: Solubility of compound at pH 1.2

solubility (physchem [1]) [µg/mL] | solubility (physchem [2]) [µg/mL] | SMILES
< 1 | 1.1 (≈ 2.04 µM) | CCOC(=O)c1ccc(NC(=O)c2nc3c(s2)CN(C)CC3)c(NC(=O)c2cc3cc(Cl)ccc3[nH]2)c1
825 (≈ 1490 µM) | 256 (≈ 462 µM) | CC(Oc1ccc(NC(=O)c2cc3cc(Cl)ccc3[nH]2)c(NC(=O)c2nc3c(s2)CN(C)CC3)c1)C(=O)O (centres undefined)
